Test results published in publication PMC8512147, “Multifunctional Small Molecules as Potential Anti-Alzheimer’s Disease Agents” (Molecules, 2021).

Columns and labels:
[1] = Fe^3+ complexation, potentiometric / spectrophotometric titration; format: physicochemical; conditions: for log β (FemHhLl), species (101) / log β (FemHhLl), species (102): pH-potentiometric (FA), UV–Vis (1a, 1d); for pM (Fe^3+), pM = −log [M]: pH 7.4, CL/CM = 10, CM = 10^−6 M
Excerpt: The chelating ability of FA and of selected compounds 1a and 1d was studied by using the same experimental techniques (potentiometry, UV–Vis spectrophotometry) and experimental medium used for the titration of the ligand alone (20% w/w DMSO/water).
Alterations in the deprotonation profiles of the ligand titration curves due to the presence of the metal ions are evident in Figure 2, since the curves for the M/L systems appear well below that of FA for a > −1 (M = Fe) or a > 0 (M = Cu). This evidence supports the formation of metal complexes with the deprotonated (L^−) and mono-protonated (HL) forms of the ligand, whose stability order (Fe > Cu) follows the expected trend. Equilibrium models obtained from the fitting analysis of the potentiometric curves (M = Fe, Cu) and the UV–Vis spectral data (M = Fe, Cu) are reported in Table 2.
Both compounds 1a and 1d have similar chelating capacities towards iron and copper, which are also analogous to those of FA.
As concerns the metal chelation studies, potassium hydrogen phthalate (C8H5KO4, p.a.) was acquired from BDH, whereas dimethylsulfoxide (DMSO, dried, p.a.) and potassium chloride (KCl, p.a.) were supplied by Sigma-Aldrich. Aqueous solutions of metal ions were prepared starting from 1000 ppm standards (Titrisol, Sigma-Aldrich), to obtain solutions FeCl3 0.018 M and CuCl2 0.015 M. The metal content of solutions was evaluated by atomic absorption. Iron stock solution was prepared with an excess of acid chloride to avoid hydrolysis and its concentration in HCl was determined by the usual standard-addition method using 0.1M HCl (Titrisol). The 0.1M HCl solution, used in calibration of the glass electrode and in spectrophotometric titrations, was prepared from a Titrisol ampoule. The titrant was prepared from carbonate free commercial concentrate (Titrisol, KOH 0.1 M ampoules). The KOH solution was standardized by titration with a solution of potassium hydrogen phthalate using Gran’s method and it was rejected when the percentage of carbonate was greater than 0.5% of the total amount of base. The potentiometric studies were performed with an automated potentiometric apparatus controlled by PASAT program and containing a Crison micropH 2002 millivoltmeter, a Crison microBu 2031 burette and a Haake thermostatic bath (T = 25.0 ± 0.1 °C). The spectrophotometric titrations were carried out with a Perkin-Elmer Lambda 35 spectrophotometer.
Both glass and Ag/AgCl reference electrodes were previously conditioned in different DMSO/H2O mixtures of increasing DMSO % concentration and the response of the glass electrode was evaluated by strong acid–strong base (HCl/KOH) calibrations with the determination of the Nernst parameters by Gran’s method. […] The spectrophotometric measurements were carried out in a 250–450 nm wavelength range at pH ca. 2.5–11.8. Under the stated experimental conditions, the pKw value (14.27) was determined and subsequently used in the computations. The stepwise protonation constants of the ligands, Ki = [HiL]/[Hi-1L][H], and the overall metal complex stability constants, β (MmHhLl) = [MmHhLl]/[M]^m[H]^h[L]^l, were calculated by fitting the pH-potentiometric and spectrophotometric data with, respectively, the Hyperquad 2008 [41] and Psequad programs. The metal hydrolysis model was determined under the defined experimental conditions (I = 0.1 M KCl, 20% w/w DMSO/H2O, T = 25.0 ± 0.1 °C) and the following values of stability constants were included in the fitting of experimental data towards the equilibrium models related to the Fe^3+/L and Cu^2+/L systems: log β (FeH-2) = −6.78, log β (FeH-3) = −10.78; log β (Cu2H-2) = −9.94. The species distribution curves were obtained with the Hyss program.

Aβ1–42 peptide [2] = target: T1, Aβ1–42 peptide (Homo sapiens, UniProt P05067); assay: Inhibition of Cu^2+-induced Aβ1–42 aggregation, Thioflavin T fluorescence assay; format: biochemical; design: Amyloid-β peptide (1–42) was purchased from GeneCust; purchased GeneCust; conditions: compounds 80 μM, with copper 40 μM; ThT fluorescence; mean of two independent measurements in duplicate; read-out: Inhibition of Aβ1–42 Aggregation (%) Cu-Induced Aβ Aggr.
Procedure: (§1) The studied compounds (1a–e) were tested in vitro to evaluate their activity as inhibitors of Aβ1-42 peptide aggregation, through the Thioflavin T (ThT) fluorescence assay. This method is based on the strong ability of the dye ThT to bind β-amyloid fibrils and oligomers through ionic and hydrophobic interactions, while its interaction with β-amyloid monomers is extremely weak. The intercalation of compounds in the β-sheet structure of amyloid protein may prevent fibrils aggregation and ThT binding, and it is evaluated by fluorimetry. The fluorescence emission measurements were performed after overnight incubation of the self-mediated or Cu^2+-induced Aβ fibril aggregates with the studied compounds.
(§2) The inhibition of β-amyloid (Aβ) aggregation was studied through the Th-T fluorescence assay, which was performed using a Varian Cary Eclipse fluorimeter at the following wavelengths: excitation (446 nm) and emission (485 nm). Amyloid-β peptide (1–42) was purchased from GeneCust as lyophilized powder stored at −20 °C.
(§3) The method used is based on thioflavin T (ThT) fluorescence emission, which depends on the interaction of this dye with Aβ fibrils. The assay is performed with the Aβ1–42 peptide sample, which was previously prepared by solubilization of its lyophilized powder in 1,1,1,3,3,3–hexafluoro-2-propanol (HFIP), an organic solvent useful to solubilize and monomerize the β-sheets protein aggregates. After 24 h, the solution was divided into Eppendorf tubes kept in ice, and then, HFIP was left to evaporate overnight (T = 25 °C). The resultant films were stored in the freezer. […] Compounds were dissolved in MeOH (1 mg/mL) and diluted with phosphate buffer to reach a ligand stock solution of 480 μM. Two different types of experiments were prepared in a final volume of 60 μL: control ligand assays (Aβ1–42 aggregation in the absence of inhibitor) and ligand assays (effect of ligand on Aβ1–42 aggregation). For each experiment, a blank sample without Aβ1–42 was used to monitor the effect of the compounds in fluorescence. To study the inhibition of aggregation in the presence of Cu^2+, which is known to promote it, an intermediate stock solution of CuCl2 in phosphate buffer (240 µM) was prepared. Then, it was aliquoted to obtain a final concentration of 40 µM in the samples. All samples were incubated in a water bath for 24 h at 37 °C. Then, 180 µL of ThT (5 µM) in glycine-NaOH buffer (50 mM, pH = 8.5) is added to each solution and 200 µL of it is placed in a 96-well plate (BD Falcon) to be read with the fluorimeter. After 5 min of incubation with ThT, fluorescence was measured at 446 nm (ʎ excitation) and 485 nm (ʎ emission).

Aβ1–42 peptide [3] = target: T1, Aβ1–42 peptide; assay: Inhibition of self-mediated Aβ1–42 aggregation, Thioflavin T fluorescence assay; format: biochemical; design: Amyloid-β peptide (1–42) was purchased from GeneCust; purchased GeneCust; conditions: compounds 80 μM, without copper; ThT fluorescence; mean of two independent measurements in duplicate; read-out: Inhibition of Aβ1–42 Aggregation (%) Self-Aβ Aggr.
Procedure: as §1, §2, §3

[4] = T = 25.0 ± 0.1 °C, I = 0.1 M KCl, 20% w/w DMSO/water

T1 sequence (P05067 672-713): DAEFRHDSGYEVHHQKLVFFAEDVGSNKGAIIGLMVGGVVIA

| log β (FemHhLl), species (101) [1, 4] | log β (FemHhLl), species (102) [1, 4] | pM (Fe^3+), pM = −log [M] [1] | FeL in the Fe^3+/L system ([1]; pH ca. 2, species distribution) | inhibition at 80 µM (Aβ1–42 peptide [2]) | inhibition at 80 µM (Aβ1–42 peptide [3]) | log β (FemHhLl), species (1–22) [1, 4] | SMILES |
| --- | --- | --- | --- | --- | --- | --- | --- |
| 16.49(3) | 23.69(4) | 17.6 | 100% | 79.6% | 42.6% | – | COc1cc(/C=C/C(=O)NOCc2ccccc2OC)ccc1O [Compound 1a, (E)-3-(4-hydroxy-3-methoxyphenyl)-N-((2-methoxybenzyl)oxy)acrylamide] |
| 15.42(7) | 25.43(5) | 18.2 | – | 76.1% | 34.1% | 8.50(5) | COc1cc(/C=C/C(=O)NOCc2cccc(Cl)c2)ccc1O [Compound 1d, (E)-N-((3-chlorobenzyl)oxy)-3-(4-hydroxy-3-methoxyphenyl)acrylamide] |
